Laboratory results reported in paper PMC4861610 (Drug Design, Development and Therapy, 2016).

Columns and labels:
FGFR1 kinase = FGFR1 kinase (Homo sapiens, UniProt P11362); test: LANCE Ultra TR-FRET kinase assay, FGFR1; assay type: biochemical; settings: for Selectivity ratio: ratio of the second lowest IC50 against the lowest IC50 value among FLT3, FGFR1-3, PDGFR-β, EGFR
FLT3 = biological target: T1, FLT3 (Homo sapiens, UniProt P36888); test: LANCE Ultra TR-FRET kinase selectivity assay, FLT3; assay type: biochemical
T1 sequence (P36888 27-993): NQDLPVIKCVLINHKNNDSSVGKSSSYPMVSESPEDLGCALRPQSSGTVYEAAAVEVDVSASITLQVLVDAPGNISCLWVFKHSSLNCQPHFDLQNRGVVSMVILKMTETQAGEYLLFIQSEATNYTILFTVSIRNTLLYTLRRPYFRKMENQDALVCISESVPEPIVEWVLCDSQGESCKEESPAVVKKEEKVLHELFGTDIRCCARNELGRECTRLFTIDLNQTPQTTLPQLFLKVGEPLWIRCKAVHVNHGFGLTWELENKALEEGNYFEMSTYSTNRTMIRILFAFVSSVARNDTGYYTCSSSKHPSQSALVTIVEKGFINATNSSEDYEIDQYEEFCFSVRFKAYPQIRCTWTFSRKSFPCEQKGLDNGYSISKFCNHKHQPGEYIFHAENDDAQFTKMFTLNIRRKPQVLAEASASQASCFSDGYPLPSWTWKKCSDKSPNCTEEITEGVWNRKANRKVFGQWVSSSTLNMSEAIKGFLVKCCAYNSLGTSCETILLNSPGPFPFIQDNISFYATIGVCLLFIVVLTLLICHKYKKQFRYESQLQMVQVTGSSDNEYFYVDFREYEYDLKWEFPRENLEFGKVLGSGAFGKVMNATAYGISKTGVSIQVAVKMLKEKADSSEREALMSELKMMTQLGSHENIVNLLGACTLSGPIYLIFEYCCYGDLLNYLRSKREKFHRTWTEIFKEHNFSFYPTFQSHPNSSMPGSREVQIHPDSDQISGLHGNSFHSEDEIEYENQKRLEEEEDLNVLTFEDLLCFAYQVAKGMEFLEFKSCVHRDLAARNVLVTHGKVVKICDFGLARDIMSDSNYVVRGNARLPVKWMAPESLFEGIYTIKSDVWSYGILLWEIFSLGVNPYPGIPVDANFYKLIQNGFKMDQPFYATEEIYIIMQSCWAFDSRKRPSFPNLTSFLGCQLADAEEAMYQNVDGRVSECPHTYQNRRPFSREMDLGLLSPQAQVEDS

FGFR2 = FGFR2 (Homo sapiens, UniProt P21802); test: LANCE Ultra TR-FRET kinase selectivity assay, FGFR2; assay type: biochemical
FGFR3 = FGFR3 (Homo sapiens, UniProt P22607); test: LANCE Ultra TR-FRET kinase selectivity assay, FGFR3; assay type: biochemical
PDGFR-β = PDGFR-β (Homo sapiens, UniProt P09619); test: LANCE Ultra TR-FRET kinase selectivity assay, PDGFR-β; assay type: biochemical
EGFR = EGFR (Homo sapiens, UniProt P00533); test: LANCE Ultra TR-FRET kinase selectivity assay, EGFR; assay type: biochemical
[1] = MTT cytotoxicity assay, normal liver HL7702 cells; assay type: cell-based, human; settings: human, HL7702 normal liver cells
HL7702 cells = test: MTT cytotoxicity assay, normal liver HL7702 cells; assay type: cell-based, human; settings: 2 and 10 µM, Figure 5A and B

Chain of FGFR2 (P21802 22-821, species assumed): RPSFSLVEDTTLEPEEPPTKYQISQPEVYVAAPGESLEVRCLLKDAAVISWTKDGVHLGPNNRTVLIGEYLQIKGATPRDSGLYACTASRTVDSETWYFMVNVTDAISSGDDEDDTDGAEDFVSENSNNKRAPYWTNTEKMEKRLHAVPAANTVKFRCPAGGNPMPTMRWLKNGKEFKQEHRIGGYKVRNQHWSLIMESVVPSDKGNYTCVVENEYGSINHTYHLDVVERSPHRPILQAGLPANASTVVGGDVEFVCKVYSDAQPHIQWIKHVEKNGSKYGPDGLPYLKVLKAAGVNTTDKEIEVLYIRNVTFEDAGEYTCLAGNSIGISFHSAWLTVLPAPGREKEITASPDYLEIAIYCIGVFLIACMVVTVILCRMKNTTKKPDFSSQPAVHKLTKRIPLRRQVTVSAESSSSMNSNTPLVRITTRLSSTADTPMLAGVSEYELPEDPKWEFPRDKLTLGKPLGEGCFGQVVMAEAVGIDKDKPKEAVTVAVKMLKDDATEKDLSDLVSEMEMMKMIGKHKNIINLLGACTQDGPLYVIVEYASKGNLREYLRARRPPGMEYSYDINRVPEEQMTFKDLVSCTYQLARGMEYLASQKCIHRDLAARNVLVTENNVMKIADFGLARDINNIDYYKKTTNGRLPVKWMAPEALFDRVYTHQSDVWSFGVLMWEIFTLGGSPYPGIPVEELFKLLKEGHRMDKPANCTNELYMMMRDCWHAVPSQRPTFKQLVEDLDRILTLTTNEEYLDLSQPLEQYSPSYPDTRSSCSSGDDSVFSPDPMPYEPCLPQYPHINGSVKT
Chain of PDGFR-β (P09619 33-1106, species assumed): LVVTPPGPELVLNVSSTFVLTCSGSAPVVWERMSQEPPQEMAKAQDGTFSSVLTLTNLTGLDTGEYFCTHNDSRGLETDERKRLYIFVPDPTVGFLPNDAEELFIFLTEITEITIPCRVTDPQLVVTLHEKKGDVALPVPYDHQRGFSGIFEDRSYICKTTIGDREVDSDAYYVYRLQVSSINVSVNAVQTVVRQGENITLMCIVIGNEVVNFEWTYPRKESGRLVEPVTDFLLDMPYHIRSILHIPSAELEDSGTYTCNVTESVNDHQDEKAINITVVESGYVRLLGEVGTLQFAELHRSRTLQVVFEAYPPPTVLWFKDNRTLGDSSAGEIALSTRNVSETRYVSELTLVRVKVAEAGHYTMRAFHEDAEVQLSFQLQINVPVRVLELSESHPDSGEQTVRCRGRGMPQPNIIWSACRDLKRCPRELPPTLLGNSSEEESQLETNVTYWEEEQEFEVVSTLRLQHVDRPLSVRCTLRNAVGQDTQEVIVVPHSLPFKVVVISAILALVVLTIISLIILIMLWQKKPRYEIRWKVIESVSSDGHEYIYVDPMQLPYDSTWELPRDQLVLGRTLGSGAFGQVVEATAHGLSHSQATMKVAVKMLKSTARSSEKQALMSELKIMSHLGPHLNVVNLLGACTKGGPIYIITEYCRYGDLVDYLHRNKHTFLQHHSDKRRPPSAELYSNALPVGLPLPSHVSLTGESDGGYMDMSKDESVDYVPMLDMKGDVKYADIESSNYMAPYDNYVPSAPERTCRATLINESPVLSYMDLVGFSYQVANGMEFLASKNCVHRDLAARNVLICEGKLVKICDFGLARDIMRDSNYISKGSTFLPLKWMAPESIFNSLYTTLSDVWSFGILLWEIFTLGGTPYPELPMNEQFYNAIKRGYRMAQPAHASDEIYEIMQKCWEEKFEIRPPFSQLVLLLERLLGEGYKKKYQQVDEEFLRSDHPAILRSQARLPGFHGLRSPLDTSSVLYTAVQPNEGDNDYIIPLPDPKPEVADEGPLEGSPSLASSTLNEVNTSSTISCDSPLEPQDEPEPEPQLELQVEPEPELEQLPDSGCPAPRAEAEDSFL
Chain of FGFR3 (P22607 23-806, species assumed): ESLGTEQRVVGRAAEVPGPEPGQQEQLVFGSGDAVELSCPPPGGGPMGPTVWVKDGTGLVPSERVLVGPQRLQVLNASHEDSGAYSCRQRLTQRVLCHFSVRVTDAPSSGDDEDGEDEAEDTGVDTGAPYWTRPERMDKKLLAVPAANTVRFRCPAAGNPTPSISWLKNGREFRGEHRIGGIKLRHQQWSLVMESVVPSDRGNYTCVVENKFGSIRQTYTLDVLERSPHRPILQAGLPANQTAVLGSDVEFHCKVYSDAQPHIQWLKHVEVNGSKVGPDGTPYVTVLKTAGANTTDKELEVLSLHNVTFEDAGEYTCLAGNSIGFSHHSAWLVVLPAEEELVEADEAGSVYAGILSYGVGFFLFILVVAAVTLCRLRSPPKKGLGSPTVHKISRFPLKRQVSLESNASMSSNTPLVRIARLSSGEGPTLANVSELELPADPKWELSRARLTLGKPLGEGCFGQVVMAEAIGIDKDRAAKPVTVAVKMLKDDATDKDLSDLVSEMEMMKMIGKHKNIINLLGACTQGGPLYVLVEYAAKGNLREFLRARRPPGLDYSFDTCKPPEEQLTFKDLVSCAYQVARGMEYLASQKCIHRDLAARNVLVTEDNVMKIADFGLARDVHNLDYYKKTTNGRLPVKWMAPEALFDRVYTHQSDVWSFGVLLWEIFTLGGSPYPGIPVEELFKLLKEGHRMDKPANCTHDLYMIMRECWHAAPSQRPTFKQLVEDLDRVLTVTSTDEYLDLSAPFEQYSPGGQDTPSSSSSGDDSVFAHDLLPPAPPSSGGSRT
Chain of EGFR (P00533 25-1210, species assumed): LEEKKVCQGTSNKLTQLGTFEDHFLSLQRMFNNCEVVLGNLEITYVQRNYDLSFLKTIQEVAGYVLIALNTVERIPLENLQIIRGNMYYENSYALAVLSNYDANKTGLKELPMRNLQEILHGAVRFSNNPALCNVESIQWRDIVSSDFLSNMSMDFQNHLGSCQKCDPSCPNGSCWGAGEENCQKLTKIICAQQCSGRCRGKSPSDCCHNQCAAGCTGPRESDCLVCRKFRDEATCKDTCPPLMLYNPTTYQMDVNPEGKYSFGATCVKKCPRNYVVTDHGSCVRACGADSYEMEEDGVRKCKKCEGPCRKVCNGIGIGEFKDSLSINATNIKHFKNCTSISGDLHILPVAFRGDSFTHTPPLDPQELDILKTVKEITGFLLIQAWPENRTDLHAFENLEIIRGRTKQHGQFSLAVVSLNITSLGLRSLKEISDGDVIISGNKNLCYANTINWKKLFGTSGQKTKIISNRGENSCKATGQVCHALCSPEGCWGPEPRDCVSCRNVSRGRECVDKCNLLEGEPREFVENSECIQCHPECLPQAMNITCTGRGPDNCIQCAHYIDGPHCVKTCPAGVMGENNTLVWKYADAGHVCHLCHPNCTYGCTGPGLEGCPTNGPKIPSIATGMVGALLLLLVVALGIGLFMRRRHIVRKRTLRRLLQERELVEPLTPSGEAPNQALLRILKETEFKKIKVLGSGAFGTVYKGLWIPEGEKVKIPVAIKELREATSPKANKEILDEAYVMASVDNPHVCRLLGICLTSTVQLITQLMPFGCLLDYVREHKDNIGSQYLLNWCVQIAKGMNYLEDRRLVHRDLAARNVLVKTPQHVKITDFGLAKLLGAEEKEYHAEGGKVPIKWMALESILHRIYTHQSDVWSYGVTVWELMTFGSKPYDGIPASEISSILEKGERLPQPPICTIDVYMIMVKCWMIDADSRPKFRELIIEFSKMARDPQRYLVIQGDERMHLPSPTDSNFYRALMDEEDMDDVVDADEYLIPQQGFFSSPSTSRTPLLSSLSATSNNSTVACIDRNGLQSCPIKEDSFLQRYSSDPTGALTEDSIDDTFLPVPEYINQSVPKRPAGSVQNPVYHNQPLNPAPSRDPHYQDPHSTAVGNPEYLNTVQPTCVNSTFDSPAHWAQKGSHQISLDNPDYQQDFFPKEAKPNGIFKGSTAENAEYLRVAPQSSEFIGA
Chain of FGFR1 kinase (P11362 478-767 limits assumed): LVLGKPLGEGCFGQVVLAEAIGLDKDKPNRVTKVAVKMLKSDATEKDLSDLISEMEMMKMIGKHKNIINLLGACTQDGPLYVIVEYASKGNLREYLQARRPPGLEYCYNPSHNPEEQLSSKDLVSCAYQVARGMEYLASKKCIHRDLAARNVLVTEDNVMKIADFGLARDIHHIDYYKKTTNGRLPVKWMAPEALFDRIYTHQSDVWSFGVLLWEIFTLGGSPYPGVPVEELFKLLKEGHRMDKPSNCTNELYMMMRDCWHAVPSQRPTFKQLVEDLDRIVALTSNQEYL

SMILES: O=c1[nH]c2ccccc2nc1/C=C/c1ccccc1 [A1, (E)-1,2-Dihydro-3-(2-phenylethenyl) quinoxalin-2-one]
- IC50 (FGFR1 kinase): 23.2 ± 1.12 µM
- Selectivity ratio (FGFR1 kinase): 3.86
- IC50 (FLT3): > 100 µM
- IC50 (FGFR2): > 100 µM
- IC50 (FGFR3): 89.6 ± 3.32 µM
- IC50 (PDGFR-β): > 100 µM
- IC50 (EGFR): > 100 µM
- IC50 at 72 h [1]: > 100 µM

SMILES: O=c1[nH]c2ccccc2nc1/C=C/c1ccccc1Cl [A2, (E)-1,2-Dihydro-3-[2-(2-chlorophenyl)ethenyl]-quinoxalin-2-one]
- IC50 (FGFR1 kinase): 21.5 ± 2.24 µM
- Selectivity ratio (FGFR1 kinase): 2.57
- IC50 (FLT3): > 100 µM
- IC50 (FGFR2): > 100 µM
- IC50 (FGFR3): 75.1 ± 2.56 µM
- IC50 (PDGFR-β): 55.4 ± 1.72 µM
- IC50 (EGFR): > 100 µM
- IC50 at 72 h [1]: 41.5 ± 7.56 µM

SMILES: Oc1nc2ccccc2nc1/C=C/c1ccc(F)cc1 [A4, (E)-3-[2-(4-Fluorophenyl)ethenyl]-1,2-dihydro-quinoxalin-2-one]
- IC50 at 72 h [1]: 67.9 ± 1.94 µM

SMILES: O=c1[nH]c2ccccc2nc1/C=C/c1ccccn1 [A5, (E)-3-[2-(Pyridine-2-yl)ethenyl]-1,2-dihydro-quinoxalin-2-one]
- inhibition ratio of FGFR1 (FGFR1 kinase; at 10.0 µM): 79.33%
- IC50 (FLT3): > 100 µM
- IC50 (FGFR2): > 100 µM
- IC50 (FGFR3): > 100 µM
- IC50 (PDGFR-β): > 100 µM
- IC50 (EGFR): > 100 µM
- IC50 at 72 h [1]: > 100 µM
- survival rate of HL7702 cells compared with TKI258 (HL7702 cells): higher survival rate

SMILES: O=c1[nH]c2ccccc2nc1/C=C/c1ccccc1F [A6, (E)-3-[2-(2-Fluorophenyl)ethenyl]-1,2-dihydro-quinoxalin-2-one]
- IC50 at 72 h [1]: > 100 µM

SMILES: O=c1[nH]c2ccccc2nc1/C=C/c1cccs1 [A7, (E)-3-[2-(Thiophene-2-yl)ethenyl]-1,2-dihydro-quinoxalin-2-one]
- IC50 at 72 h [1]: 83.2 ± 8.12 µM

SMILES: O=c1[nH]c2ccccc2nc1/C=C/c1ccco1 [A8, (E)-3-[2-(Furan-2-yl)ethenyl]-1,2-dihydro-quinoxalin-2-one]
- IC50 at 72 h [1]: > 100 µM

SMILES: COc1cccc(/C=C/c2nc3ccccc3[nH]c2=O)c1OC [A9, (E)-1,2-Dihydro-3-[2-(2,3-dimethoxyphenyl)ethenyl]-quinoxalin-2-one]
- IC50 at 72 h [1]: > 100 µM

SMILES: O=c1[nH]c2ccccc2nc1/C=C/c1ccccc1[N+](=O)[O-] [A10, (E)-1,2-Dihydro-3-[2-(2-nitrophenyl)ethenyl]-quinoxalin-2-one]
- IC50 at 72 h [1]: 68.2 ± 5.96 µM

SMILES: O=c1[nH]c2ccccc2nc1/C=C/c1ccc(C(F)(F)F)cc1 [A11, (E)-1,2-Dihydro-3-[2-(4-trifluoromethylphenyl)ethenyl]-quinoxalin-2-one]
- IC50 at 72 h [1]: > 100 µM

SMILES: O=c1[nH]c2ccccc2nc1/C=C/c1ccc2ccccc2c1 [A13, (E)-1,2-Dihydro-3-[2-(naphth-2-yl)ethenyl]-quinoxalin-2-one]
- IC50 at 72 h [1]: > 100 µM

SMILES: Cn1c(=O)c(/C=C/c2ccccc2)nc2ccccc21 [B1, (E)-1,2-Dihydro-1-methyl-3-(2-phenylethenyl)-quinoxalin-2-one]
- IC50 at 72 h [1]: > 100 µM

SMILES: Cn1c(=O)c(/C=C/c2ccccc2Cl)nc2ccccc21 [B2, (E)-3-[2-(2-Chlorophenyl)ethenyl]-1,2-dihydro-1-methyl-quinoxalin-2-one]
- IC50 (FGFR1 kinase): 26.1 ± 1.32 µM
- IC50 (FLT3): > 100 µM
- IC50 (FGFR2): > 100 µM
- IC50 (FGFR3): > 100 µM
- IC50 (PDGFR-β): > 100 µM
- IC50 (EGFR): > 100 µM
- IC50 at 72 h [1]: > 100 µM

SMILES: Cn1c(=O)c(/C=C/c2ccccc2Br)nc2ccccc21 [B3, (E)-3-[2-(2-Bromophenyl)ethenyl]-1,2-dihydro-1-methyl-quinoxalin-2-one]
- IC50 at 72 h [1]: 49 ± 1.31 µM

SMILES: Cn1c(=O)c(/C=C/c2ccc(F)cc2)nc2ccccc21 [B4, (E)-1,2-Dihydro-3-[2-(4-fluorophenyl)ethenyl]-1-methyl-quinoxalin-2-one]
- IC50 at 72 h [1]: > 100 µM

SMILES: Cn1c(=O)c(/C=C/c2ccccn2)nc2ccccc21 [B5, (E)-3-[2-(Pyridine-2-yl)ethenyl]-1,2-dihydro-1-methyl-quinoxalin-2-one]
- IC50 (FLT3): > 100 µM
- IC50 (FGFR2): > 100 µM
- IC50 (FGFR3): > 100 µM
- IC50 (PDGFR-β): 89.5 ± 3.56 µM
- IC50 (EGFR): > 100 µM

SMILES: O=c1c(/C=C/c2ccccc2)nc2ccccc2n1Cc1ccccc1 [C1, (E)-1,2-Dihydro-3-(2-phenylethenyl)-1-phenylmethyl-quinoxalin-2-one]
- IC50 at 72 h [1]: > 100 µM

SMILES: O=c1c(/C=C/c2ccccc2Cl)nc2ccccc2n1Cc1ccccc1 [C2, (E)-3-[2-(2-Chlorophenyl)ethenyl]-1,2-dihydro-1-phenylmethyl-quinoxalin-2-one]
- Selectivity ratio (FGFR1 kinase): 3.68
- IC50 (FLT3): > 100 µM
- IC50 (FGFR2): > 100 µM
- IC50 (PDGFR-β): > 100 µM
- IC50 (EGFR): > 100 µM
- IC50 at 72 h [1]: > 100 µM

SMILES: O=c1c(/C=C/c2ccccc2Br)nc2ccccc2n1Cc1ccccc1 [C3, (E)-3-[2-(2-Bromophenyl)ethenyl]-1,2-dihydro-1-phenylmethyl-quinoxalin-2-one]
- IC50 at 72 h [1]: > 100 µM

SMILES: O=c1c(/C=C/c2ccccc2F)nc2ccccc2n1Cc1ccccc1 [C4, (E)-3-[2-(2-Fluorophenyl)ethenyl]-1,2-dihydro-1-phenylmethyl-quinoxalin-2-one]
- IC50 at 72 h [1]: > 100 µM

SMILES: O=c1c(/C=C/c2ccccn2)nc2ccccc2n1Cc1ccccc1 [C5, (E)-3-[2-(Pyridine-2-yl)ethenyl]-1,2-dihydro-1-phenylmethyl-quinoxalin-2-one]
- IC50 at 72 h [1]: 35.8 ± 2.17 µM

SMILES: Fc1ccccc1/C=C/c1nc2ccccc2nc1Cl [D1, (E)-2-Chloro-3-[2-(2-fluorophenyl)ethenyl]-quinoxalin]
- IC50 at 72 h [1]: 40.2 ± 1.85 µM

SMILES: CN1CCN(c2nc3ccccc3nc2/C=C/c2ccccc2F)CC1 [D3, (E)-2-(4-Methylpiperazin-1-yl)-3-[2-(2-fluorophenyl)ethenyl]-quinoxalin]
- IC50 at 72 h [1]: > 100 µM

SMILES: CN1CCN(c2ccc3nc(-c4c(N)c5c(F)cccc5[nH]c4=O)[nH]c3c2)CC1 [TKI258, reference compound]
- IC50 at 72 h [1]: 32.8 ± 2.38 µM
